Measured values as given in patent US20030022938A1, “N-fatty acid-amino acid conjugates and therapeutic uses” (priority 2001, published 2003).
Entries after “also recorded” stand apart in the source; their conditions may differ.

Tests used:
[1] = system: formalin-induced pain behavior; assay: Formalin test for pain reduction; type: in vivo; conditions: rats
Method: Rats received intraplantar injections of formalin in the hindpaw, and pain behavior consisting of lifting and licking of the injected paw was observed. Drug or co-vehicle was coinjected with the formalin solution (4.5% formalin in 10% DMSO, 100μl, s.c., ipl.).

IL-1β [2] = assay: IL-1β release from human peripheral blood monocytes (ELISA), LPS stimulated or not stimulated; type: cell-based; set-up: IL-lé release from PBM not stimulated with LPS (adherence only): dose or concentration left out as unconfirmed; conditions: for IL-lé secretion from LPS stimulated peripheral blood mononuclear cells: 60 min preincubation, LPS 10 ng/ml 18 hours; for IL-lé release from PBM not stimulated with LPS (adherence only): unstimulated cells, 18 hours
Method: Cells (2×106) were incubated for 60 minutes with either agent at the indicated concentrations. Vehicle (0.5% DMSO) treated cells served as controls. Cells were then not stimulated (FIG. 3A) or stimulated (FIG. 3B) with LPS (10 ng/ml) for 18 hours, at which time supernatant IL-lé was measured by ELISA. Values shown are the means obtained from triplicate samples (Control A=826 pg/ml; Control B=8.68±0.5 ng/ml).

human T-lymphocytes = assay: PHA stimulated T-cell proliferation (BrDU incorporation); type: cell-based; conditions: 0.1-10 mM, PHA 10 ng/ml, 72 hours
Method: The cells were then stimulated with PHA (10 ng/ml) and incubated for 72 hours. A control set treated with NAGly/DMSO not stimulated with PHA was incubated in parallel. Cell numbers were determined by measuring BrDU incorporation for 24 hours. The values shown (see “PRO[…]” on the y-axis) are the ratios of the optical density readings from treated and control cells.
Cell proliferation in vitro was measured by incorporation of 5-bromo-2′-deoxyuridine (BrDU) instead of thymidine into the DNA of proliferating cells. […] Cells (2×10^5 per well) were then cultured in 96 well, flat bottomed microtiter plates and stimulated with PHA (10 ng/ml) or not stimulated. Cultures were maintained for 72 hours in a standard cell incubator at 37° C. BrDU was then added to all wells and cells are then reincubated for 24 hours. The medium was removed and the cells were fixed and DNA was denatured. Anti-BrDU-peroxidase was added and the immune complex was detected by substrate (tetramethylbenzidine) reaction. The reaction was stopped with […] sulfuric acid (1N) and the product was quantified by measuring the absorbance at 492 nm with reference at 650 nm. Absorbance correlated directly to the amount of DNA synthesis, and, thereby, to the number of proliferating cells in each culture.

human T lymphocytes [3] = assay: Proliferation of anti CD3, CD4 treated human T lymphocytes; type: cell-based; conditions: 0.1 to 1.0 mM, vs vehicle (DMSO)
IL-1β [4] = conditions: concentrations of 1 μm and 10 μm; Burstein et al. 2000; cited from earlier work
[5] = system: arachidonic acid-induced paw edema; assay: Arachidonic acid-induced paw edema test; type: in vivo, mice
Method: The conditions employed in the paw edema test have been previously described (Calhoun et al., Agents Actions, 21:306-309, 1987; Burstein et al., J. Pharmacology and Experimental Therapeutics, 251:531-535; Burstein et al., J. Med. Chem., 35:3135-41, 1992), with water being substituted for mercury as the displacement medium. Arachidonic acid (1.0 mg) in 25 μl of saline is injected subcutaneously into the plantar surface of the right hindpaw of ether-anesthetized CD-1 female mice (20-25 g) obtained from Charles River Laboratories. The volume of the right foot is then measured to the level of the lateral malleolus by water displacement before treatment and 30 minutes after arachidonic acid injection. An N-fatty acid-amino acid conjugate, in 50 μl of peanut oil, is given p.o. to the mice 30 min prior to the induction of edema by arachidonic acid. The change in paw volume is calculated for each mouse and the significance for each group can be determined by an ANOVA test.
The conditions were previously described by Calhoun et al. (Agents Actions, 21:306-309, 1987), and by Burstein et al. (J. Pharmacology and Experimental Therapeutics, 251:531-535; J. Med. Chem., 35:3135-41, 1992), with water being substituted for mercury as the displacement medium. Arachidonic acid (1.0 mg in 25μl of saline) was injected subcutaneously into the plantar surface of the right hindpaw of ether-anesthetized CD-1 female mice (20-25 g) obtained from Charles River Laboratories. The volume of the right foot was measured to the level of the lateral malleous by water displacement before treatment and 30 minutes after arachidonic acid injection. […] The change in paw volume was calculated for each mouse and the significance for each group was determined by an ANOVA test.

[6] = system: RAW 264.7 murine monocyte cells; assay: RAW cell proliferation (MTT assay); type: cell-based; conditions: 24 hours treatment; 25, 50 and 100 mM
Method: Cells were maintained in MEM containing 0.5% serum overnight. […] After a 24 hour incubation period, […] MTT (Sigma Co) solution (5 mg/ml in PBS) was added to each well and incubated for 2 hours at 37° C. Then, cells were triturated in 1.1 ml isopropanol MTT solubilization solution (Sigma Co). […] of this mixture was then transferred in duplicate to a 96 well plate and the optical density recorded using a ThermoMax® microplate reader at […] absorbance. Based on a standard curve with known numbers of cells, experimental readings were in the linear range for cell numbers.
Values shown in FIG. 5 are optical density readings obtained using the MTT assay and are directly proportional to the numbers of cells. They are the means of four replicates ± SD. […] The values shown are the optical density readings obtained from the MTT assay where a value of 0.5 is approximately equivalent to 2×10^4 cells. Vehicle treated cells served as the control and gave a reading of 0.396±0.047 O.D. units. The data shown is representative of three independent experiments.

[7] = system: arachidonic acid release in RAW cells; assay: Arachidonic acid release in RAW cells; type: cell-based, murine
Method: Radiolabelled arachidonic acid was incorporated into the cellular lipid pools for 20 hours. […] Over the concentration range of 1.6-32 mM, a 300% increase in labeled, free arachidonic acid was found in the media when compared to vehicle treated control values. Media from cells in the control group contained 8,800±1600 dpm.
The cells were grown in MEM with 1% penicillin-streptomycin and 10% fetal bovine serum at 37° C. under 95% […]:5% carbon dioxide to about 85% confluence. Cells were contained in 24-well plates and labeled with 100,000 dpm/ml/well of ^3H or ^14C arachidonic acid at 37° C. for 20 hours (Pestonjamasp and Burstein, Biochim Biophys Acta, 1394(2-3):249-60, 1998). The wells were washed 4 times with 0.5% BSA in MEM followed by incubation in 1 ml 0.1% BSA-MEM for 60 minutes. […] Control values were obtained with 10 μl of vehicle. Media were collected, centrifuged at 3000×g to remove cells, and 0.1 ml withdrawn and assayed for radioactivity by liquid scintillation counting.

NF-κB = assay: NFk-B inhibition studies in PBM (DNA binding, autoradiographic-PAGE); type: cell-based; conditions: 1 hour, then LPS 10 ng/ml 60 minutes; human PBM, two donors
Method: PBM from two donors were prepared and treated separately. Cell extracts were then obtained and analyzed for DNA binding of NF-kB, as determined by autoradiographic-PAGE measurement, according to the following method. […] Media were then removed and the cells were transferred to 1.5 ml microcentrifuge tubes and washed 2 times with ice cold PBS. After centrifugation at 10,000 rpm, PBS was removed and 0.5 ml of cytoplasmic extraction buffer (buffer A) was added to the cell pellet. Tubes were vortexed and placed on ice for 10 minutes, then centrifuged at 12,000 rpm for 5 minutes. Cells were washed once with buffer A, which was then added to previous cytosol extract fraction. Cytoplasmic extracts were saved at −80° C. until use. 0.1 ml of cold nuclear extraction buffer (buffer B) was then added to precipitated nuclei and incubated for 60-120 minutes in ice. Nuclear extracts were obtained by centrifugation at 12,000 rpm for 10 minutes and saved at −80° C. until use. (Extraction buffer A is a hypotonic solution and contains HEPES, KCl, EDTA, EGTA, DTT, PMSF, leupeptin, antipain, aprotinin, and NP-40 detergent. Extraction buffer B is a high salt buffer and contains all of the above agents plus glycerol.) The protein concentrations of the nuclear extracts were determined by the Bradford protein assay (Coumassie blue staining). […] Gels were scanned and analysed utilizing the Adobe software for PC.

[8] = system: anandamide levels in RAW cells; assay: Anandamide levels in intact cultured RAW cells (HPLC-MS/MS); type: cell-based, murine; set-up: elevation of basal concentrations of anandamide: dose or concentration left out as unconfirmed
Method: Cells were grown as described previously (Pestonjamasp and Burstein, Biochim Biophys Acta, 1394(2-3):249-60, 1998).

[9] = system: blood levels of anandamide; conditions: 10 mg/kg p.o., rats, 45 minutes post treatment, vs vehicle-treated
Method: Anandamide and NAGly levels were measured in plasma extracts by HPLC-MS/MS with d8-anandamide added as an internal standard. Reverse phase HPLC was performed on a 100×1 mm i.d. column packed with ODS Hypersil® (3 μm, 120 A pore size, Keystone Scientific, Inc., Bellefonte, Pa.). A Rheos® 2000 micro HPLC pumping system was used to pump the mobile phase (90% methanol, 10% 0.05% pH 5.7 aqueous ammonium acetate buffer) at 50μl/minute. The outlet from the column was connected directly to the electrospray ion source of a Finnigan® LCQ quadrupole ion trap mass spectrometry system. Positive ion electrospray ionization was used with the source at 4500 V, the capillary at 200° and the nitrogen sheath gas at a relative setting of 60. NAGly eluted at 1.4 minutes and was detected by MS2 of its MH+ion (m/z 362.2) with an isolation window of 2.5 Th and relative collision energy (CID) of 29%. Full product ion spectra were collected from m/z 95-370 and peak areas from ion plots of m/z 287.2 were used for quantitation. Anandamide and d8-anandamide were similarly detected using their MH+ions (m/z 348.2 and 356.2) as precursors with isolation windows of 2.5 Th and CID at 30%. […] Concentrations of NAGly and anandamide were calculated from their peak area ratios to the internal standard with reference to an external calibration curve. […]

human T lymphocytes [10] = conditions: Burstein et al. 2000; cited from earlier work
[11] = 275 nmol coinjected with formalin

NCC(=O)O [glycine, reference compound]
pain suppression in the formalin test [1, 11]: Neither glycine nor arachidonic acid (275 nmol) suppressed pain

CCCCC/C=C\C/C=C\C/C=C\C/C=C\CCCC(=O)NCCO [anandamide, reference compound]
IL-lé secretion from LPS stimulated peripheral blood mononuclear cells (IL-1β [2]): smaller effect | IL-lé secretion from LPS stimulated peripheral blood mononuclear cells (IL-1β [2]; listed as Anandamide): less effective than NAGly | IL-lé release from PBM not stimulated with LPS (adherence only) (IL-1β [2]): less effective than NAGly | proliferation of PHA stimulated T-cells (proliferation index) (human T-lymphocytes): little or no effect | proliferation of PHA stimulated T-cells (proliferation index) (human T-lymphocytes; listed as Anandamide): no significant effects | proliferation of anti CD3, CD4 treated human T lymphocytes (human T lymphocytes [3]): either no effect or a modest inhibition | proliferation of anti CD3, CD4 treated human T lymphocytes (human T lymphocytes [3]; listed as Anandamide): only inhibition | IL-1β secretion from stimulated human PBMC (IL-1β [4]): modestly suppress

N-arachidonyl glycine [NAGly]
reduction of paw volumes ([5]; 4 mg/kg orally, vs vehicle treated): reduced paw volumes by one half | paw edema response compared with indomethacin ([5]; NAGly 4 and 40 mg/kg vs 0.2 mg/kg indomethacin): equivalent response | reduction of paw edema ([5]; doses of 4 and 40 mg/kg p.o., 30 min before arachidonic acid, vs untreated control mice that received only arachidonic acid): more than 50% | IL-lé secretion from LPS stimulated peripheral blood mononuclear cells (IL-1β [2]): more effective inhibitor than anandamide; also recorded: suppresses; also recorded: inhibitory in a dose-related fashion | IL-lé release from PBM not stimulated with LPS (adherence only) (IL-1β [2]): more effective inhibitor than anandamide; also recorded: striking reduction; also recorded: markedly reduces | proliferation of anti CD3, CD4 treated human T lymphocytes (human T lymphocytes [3]): inverse dose-related increase; also recorded: stimulatory at low concentrations and somewhat inhibitory at higher concentrations | inhibition of RAW cell proliferation (MTT optical density) [6]: dose-related inhibition; also recorded: Significant decreases in cell numbers; also recorded: significant inhibition of cell proliferation | increase in labeled, free arachidonic acid in the media ([7]; 1.6-32 mM, 60 minutes, vs vehicle treated control): 300% | stimulation of arachidonic acid release ([7]; range of 2-32 mM): three fold stimulation | binding of NF k-B to DNA / NFk-B activation (NF-κB): effectively reduces; also recorded: strong inhibitory effect | elevation of basal concentrations of anandamide [8]: 50% | second phase (tonic pain) of the formalin response ([1]; 275 nmol coinjected with formalin, intraplantar): markedly suppressed | first phase (acute pain) of the formalin response ([1]; coinjected with formalin, intraplantar): no effect | rise in blood levels of anandamide [9]: nearly ten-fold rise | IL-1β secretion from stimulated human PBMC (IL-1β [4]): modestly suppress | proliferation of CD3-CD4 antibody-stimulated T-cells, prior observation (human T lymphocytes [10]): biphasic effect

Deuterated N-arachidonylglycine [d8-NAGly]
elevation of basal concentrations of anandamide [8]: 50% | increase in anandamide (unlabelled) ([8]; 10 mM deuterated NAGly): ~3 ng/mL | increase in d8-anandamide ([8]; 10 mM deuterated NAGly): < 0.5 ng/mL

COc1ccc2c(c1)c(CC(=O)O)c(C)n2C(=O)c1ccc(Cl)cc1 [indomethacin, reference compound]
paw edema response of the reference NSAID ([5]; 0.2 mg/kg): equivalent response

CCCCC/C=C\C/C=C\C/C=C\C/C=C\CCCC(=O)O [arachidonic acid, reference compound]
pain suppression in the formalin test [1, 11]: Neither glycine nor arachidonic acid (275 nmol) suppressed pain
